Broadly, the solubility is how much of the substance goes into solution per volume. A high value points to a readily soluble substance.

Consider one compound from patent US20240215583A1, “PLANT BIOLOGIC INCLUDING PYRROLOQUINOLINE QUINONE (PQQ)” (Dakota Bio LLC, priority 2022, published 2024).

Each structure is given as a SMILES string. ≈ marks a conversion by molar mass, not a printed value.

A short description of this data set: physchem. It counts as physicochemical. The conditions noted are these: 25 °C, water. An excerpt:
For instance, it has been observed that PQQ can be difficult to dissolve in liquid mixtures. […] In most cases, rather than dissolving, PQQ is initially suspended within a liquid solution, but the PQQ later settles out of this suspension. Once settled, the PQQ generally becomes ineffective and is inaccessible for a plant to uptake. For example, the PQQ quickly settles out of suspension onto the bottom of any storage container which in turn inhibits the spraying or otherwise applying the PQQ onto the plants and/or soil. This inability for PQQ to remain dissolved and/or suspended is exacerbated when out in commercial agricultural fields, because the solution is typically kept in large drums or other large containers that are difficult to agitate or otherwise move so as to maintain the suspension. Moreover, there is currently no commercially practical way to dissolve PQQ in a liquid mixture to mass produce a product useful in agricultural and/or horticultural situations (i.e., growing of ornamental plants).

`O=C(O)c1cc(C(=O)O)c2c(n1)C(=O)C(=O)c1cc(C(=O)O)[nH]c1-2` [PQQ, 4,5-Dioxo-4,5-dihydro-1H-pyrrolo[2,3-f]quinoline-2,7,9-tricarboxylic acid] had a solubility of approximately 212 µg/mL (≈ 641 µM).
